“And” between values parts separate entries of the source, which are not always exact repeats. Identical values can stand only once.
Test system: 323965-272-R-J2-PDC complex spheroid viability
Test: Anticancer human tumor 323965-272-R-J2-PDC patient-derived pancreatic carcinoma cell line growth inhibition [CLK]
Settings: for viability, T/C: stronger effect = lower value; active means viability on the fitted dose curve at most 10% of control; inactive means the rest
Outline: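 Multi-cell-type spheroids combined patient-derived tumor cells with HUVEC endothelial cells and human mesenchymal stem cells. Paired agents were dosed in half-log steps down from about clinical Cmax, or from 10 microM where Cmax was unknown.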

[1] = curve of first compound, second compound 0.0316 µM
[2] = curve of first compound, second compound 0.1 µM
[3] = curve of first compound, second compound 0.316 µM
[4] = curve of first compound, second compound 1 µM
[5] = curve of first compound, second compound 3.16 µM
[6] = curve of first compound, second compound 10 µM
[7] = second compound 0.0316 µM, first compound 0.0316 µM
[8] = second compound 0.0316 µM, first compound 0.1 µM
[9] = second compound 0.0316 µM, first compound 0.316 µM
[10] = second compound 0.0316 µM, first compound 1 µM
[11] = second compound 0.0316 µM, first compound 3.16 µM
[12] = second compound 0.0316 µM, first compound 10 µM
[13] = second compound 0.1 µM, first compound 0.0316 µM
[14] = second compound 0.1 µM, first compound 0.1 µM
[15] = second compound 0.1 µM, first compound 0.316 µM
[16] = second compound 0.1 µM, first compound 1 µM
[17] = second compound 0.1 µM, first compound 3.16 µM
[18] = second compound 0.1 µM, first compound 10 µM
[19] = second compound 0.316 µM, first compound 0.0316 µM
[20] = second compound 0.316 µM, first compound 0.1 µM
[21] = second compound 0.316 µM, first compound 0.316 µM
[22] = second compound 0.316 µM, first compound 1 µM
[23] = second compound 0.316 µM, first compound 3.16 µM
[24] = second compound 0.316 µM, first compound 10 µM
[25] = second compound 1 µM, first compound 0.0316 µM
[26] = second compound 1 µM, first compound 0.1 µM
[27] = second compound 1 µM, first compound 0.316 µM
[28] = second compound 1 µM, first compound 1 µM
[29] = second compound 1 µM, first compound 3.16 µM
[30] = second compound 1 µM, first compound 10 µM
[31] = second compound 3.16 µM, first compound 0.0316 µM
[32] = second compound 3.16 µM, first compound 0.1 µM
[33] = second compound 3.16 µM, first compound 0.316 µM
[34] = second compound 3.16 µM, first compound 1 µM
[35] = second compound 3.16 µM, first compound 3.16 µM
[36] = second compound 3.16 µM, first compound 10 µM
[37] = second compound 10 µM, first compound 0.0316 µM
[38] = second compound 10 µM, first compound 0.1 µM
[39] = second compound 10 µM, first compound 0.316 µM
[40] = second compound 10 µM, first compound 1 µM
[41] = second compound 10 µM, first compound 3.16 µM
[42] = second compound 10 µM, first compound 10 µM
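Further: spheroids exposed to agents for seven days before readout.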
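Wherever viability, T/C is given: percent of DMSO vehicle control wells so 100% = untreated growth.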

Nc1ccccc1NC(=O)c1ccc(CNC(=O)OCc2cccnc2)cc1 + CNC(=O)c1ccc(Nc2nc(OC3CCCC3)c3c(-c4ccc5nc(C)oc5c4)c[nH]c3n2)c(OC)c1
< 0.0316 µM: IC50 [5] | IC50 [6]
6.5 µM: IC50 [2]
1.11 µM: IC50 [4]
5.45 µM: IC50 [1]
inactive: viability, T/C [7] 112% | viability, T/C [8] 113% | viability, T/C [9] 118% | viability, T/C [10] 93.5% | viability, T/C [11] 58.4% | viability, T/C [12] 41.4% | viability, T/C [13] 90.3% | viability, T/C [14] 89% | viability, T/C [15] 98.3% | viability, T/C [16] 92.2% | viability, T/C [17] 62.1% | viability, T/C [18] 42.8% | viability, T/C [19] 67.2% | viability, T/C [20] 69.2% | viability, T/C [21] 72.6% | viability, T/C [22] 75.3% | viability, T/C [23] 43.4% | viability, T/C [24] 28.8% | viability, T/C [25] 62.4% | viability, T/C [26] 57.5% | viability, T/C [27] 58.7% | viability, T/C [28] 51.7% | viability, T/C [29] 35.3% | viability, T/C [30] 26.2% | viability, T/C [31] 50.7% | viability, T/C [32] 47.7% | viability, T/C [33] 49.8% | viability, T/C [34] 44% | viability, T/C [35] 32.2% | viability, T/C [36] 25.5% | viability, T/C [37] 41% | viability, T/C [38] 47.3% | viability, T/C [39] 47.1% | viability, T/C [40] 37.5% | viability, T/C [41] 31.2% | viability, T/C [42] 25.7%
2.41 µM: IC50 [3]

CCCS(=O)(=O)Nc1ccc(F)c(C(=O)c2c[nH]c3ncc(-c4ccc(Cl)cc4)cc23)c1F + CNC(=O)c1ccc(Nc2nc(OC3CCCC3)c3c(-c4ccc5nc(C)oc5c4)c[nH]c3n2)c(OC)c1
> 10 µM: IC50 [1] | IC50 [2] | IC50 [3] | IC50 [4]
inactive: viability, T/C [7] 106% | viability, T/C [8] 113% | viability, T/C [9] 116% | viability, T/C [10] 127% | viability, T/C [11] 127% | viability, T/C [12] 106% | viability, T/C [13] 94.3% | viability, T/C [14] 88.2% | viability, T/C [15] 97.5% | viability, T/C [16] 98.3% | viability, T/C [17] 90% | viability, T/C [18] 79.9% | viability, T/C [19] 72.5% | viability, T/C [20] 74.8% | viability, T/C [21] 78% | viability, T/C [22] 78.8% | viability, T/C [23] 88.8% | viability, T/C [24] 72% | viability, T/C [25] 47.8% | viability, T/C [26] 59.6% | viability, T/C [27] 64.8% | viability, T/C [28] 71% | viability, T/C [29] 60.9% | viability, T/C [30] 60.2% | viability, T/C [31] 47.6% | viability, T/C [32] 54.7% | viability, T/C [33] 53.6% | viability, T/C [34] 49.2% | viability, T/C [35] 61.5% | viability, T/C [36] 59.2% | viability, T/C [37] 42.5% | viability, T/C [38] 50.6% | viability, T/C [39] 47.8% | viability, T/C [40] 58.8% | viability, T/C [41] 67.2% | viability, T/C [42] 61.4%
< 0.0316 µM: IC50 [5] | IC50 [6]

Nc1ccccc1NC(=O)c1ccc(CNC(=O)OCc2cccnc2)cc1
9.39 µM and 6.89 µM: IC50 (curve of compound)
inactive: viability, T/C (compound 0.0316 µM) 115% and 110% | viability, T/C (compound 0.1 µM) 103% and 104% | viability, T/C (compound 0.316 µM) 101% and 95.5% | viability, T/C (compound 1 µM) 89.1% and 86.3% | viability, T/C (compound 3.16 µM) 72.6% and 61.8% | viability, T/C (compound 10 µM) 47.9% and 43.9%

CN1CCN(c2cc(C(=O)Nc3cc4cc(-c5cnn(C)c5)ccc4cn3)ccn2)CC1
174 nM [middle of 10 runs]: IC50 (compound alone, run of 08/14/2023)
inactive: viability, T/C (compound 0.0316 µM) 98.9% [middle of 12 runs] | viability, T/C (compound 0.1 µM) 70% [middle of 12 runs] | viability, T/C (compound 0.316 µM) 28.1% [middle of 12 runs]
active: viability, T/C (compound 1 µM) 4.53% [middle of 12 runs] | viability, T/C (compound 3.16 µM) 4.75% [middle of 12 runs] | viability, T/C (compound 10 µM) 4.22% [middle of 11 runs]

— PubChem BioAssay AID2060619 (Molecular Pharmacology Branch, DTP, NCI, 2025)
